Melting point data for 64 molecules are collected here from a melting point compilation (Tetko et al.; mined from patent text by program, amines drawn as free bases though some values may be those of a salt).

Each structure is given as a SMILES string. Where only a bound is given, the exact number is not on record here.

Molecule `N#CCCCc1ncc(Br)cc1[N+](=O)[O-]` returned a melting point of 73 to 76 °C.

`CCCCNC(=O)C(C)CC(O)C1C[C@H](C)CCCCCCNc2cc(cc(OC)n2)C(=O)N1` (some centres undefined) displayed a melting point of 178 to 182 °C.

On to `CC1NC(=O)NN=C1c1ccc(N)c(Cl)c1` (centres undefined), for which the melting point lay within 229 to 231 °C.

In turn, `COCCOCCOC(=O)/C=C/C(=O)/C=C/c1cccc(OC)c1` registered a melting point of 59 to 60 °C.

In the case of `CCOC(=O)C1=C(C)N=C(N)C(CC)(C(=O)OCC)C1c1cccc([N+](=O)[O-])c1` (centres undefined), the melting point lay in the range of 122 to 123 °C.

For `COc1ccc(S(=O)(=O)c2ccc(C)nc2Nc2c(C)cc(C)cc2C)cc1`, the melting point lay in the range of 165 to 167 °C.

Take `NNC(=O)c1ccc(OCc2cccc(Br)c2)cc1O`: the melting point lay in the range of 201 to 203 °C.

In the case of `CCn1cc(C2(c3cccc(-c4cncc(F)c4)c3)N=C(N)N(C)C2=O)cn1` (centres undefined), the melting point lay in the range of 216 to 220 °C.

The molecule `COC(=O)c1ccc(C(C(N)=O)C(C)c2cc(Cl)ccc2N2CCCC2)cc1` (centres undefined) registered a melting point of 133 to 135 °C.

With `CC(=O)Oc1c(C(C)(C)C)cc(C=[N+]([O-])CC(C)C)cc1C(C)(C)C`, the melting point lay within 177 to 180 °C.

Take `O=C1c2ccc([N+](=O)[O-])cc2S(=O)(=O)N1CSc1ccccc1`: the melting point fell in the range of 161 to 163 °C.

Take `COc1ccc(N2N=C(N)CC2c2ccccc2)cc1` (centres undefined): the melting point lay in the range of 164 to 166 °C.

The molecule `Cc1[nH]c(=O)[nH]c(=O)c1[N+](=O)[O-]` gave a melting point of 281 °C.

In turn, `CCOP(=O)(OCC)Oc1cc(C(F)(F)F)nc(N(C)C)n1` gave a melting point of 22 to 24 °C.

For the molecule `Oc1cnc(N2CCN(CCCCn3cc(Cl)cn3)CC2)nc1`, the melting point is 131 to 132 °C.

`O=c1n(CCCC2CCCC2)ccn1-c1ccc([N+](=O)[O-])cc1` came in with a melting point of 105 to 107 °C.

For `CC(=O)n1nc(CN2CCc3ccccc3C2)c2ccc(F)cc21`, the melting point lay within 106 to 107 °C.

`CC(C)c1ccc(CNc2ccc(S(=O)(=O)O)cc2)cc1` registered a melting point of more than 275 °C.

The molecule `O=C(O)c1ccccc1Nc1ccc([N+](=O)[O-])cc1[N+](=O)[O-]` showed a melting point of 266 to 270 °C.

With `COc1cc(OC)nc(NC(=O)NS(=O)(=O)c2ccccc2S(=O)(=O)NC(=O)Nc2nc(OC)cc(OC)n2)n1`, the melting point was in the range of 201 to 203 °C.

Turning to `COc1cc(/C(C#N)=C/c2ccc(C)c([N+](=O)[O-])c2)cc(OC)c1OC`, the melting point fell in the range of 162 to 163 °C.

Turning to `CCCCC1OC(=O)c2cc(NC(=O)OCC)ccc21` (centres undefined), the melting point is 125 to 126 °C.

On to `O=C1Nc2cnncc2C(=O)C1c1c(F)cc(F)cc1F` (centres undefined), for which the melting point is more than 300 °C.

With `O=C1NC(=O)C(Cc2ccc(OC[C@@H]3CCCN3c3ccccn3)cc2)S1` (some centres undefined), the melting point lay within 78 to 80 °C.

Regarding `CC(C)(C)Nc1c([N+](=O)[O-])cnc2ccccc12`, the melting point lay within 106 to 108 °C.

The molecule `Nc1nc(-c2cc(F)cc(F)c2)nc2nc(-c3ccco3)nn12` gave a melting point of 356 to 360 °C.

`O=C(Cc1ccc(Cl)c(Cl)c1)N1CCNC2CCCCC21` (centres undefined) had a melting point of 119 to 120 °C.

`O[C@@H](COc1cccc(-c2noc3ccsc23)c1)CN1CCN(c2ccccc2C(F)(F)F)CC1` came in with a melting point of 77 to 79 °C.

For `O=[N+]([O-])c1cc2c(c(Cl)c1OCc1ccccc1)CCCC2`, the melting point was 80 to 82 °C.

In the case of `Cn1nc2c(N)nc3ccccc3c2c1CCc1ccccc1`, the melting point is 210 to 212 °C.

`Cc1c(C)c2c(c(C)c1O)CCC(C)(C)O2`: the melting point lay within 85 to 88 °C.

In turn, `Fc1ccc(C(=C(c2ccccc2)C(F)(F)F)c2ccc(OCCBr)cc2)cc1` displayed a melting point of 142 to 144 °C.

With `O=C1Nc2c(O)cccc2C(=O)N2CCCC12` (centres undefined), the melting point is 280 to 282 °C.

Consider `ClCc1ccc(-c2ccc(CCl)cc2)cc1`, for which the melting point lay in the range of 137 to 138 °C.

In turn, `CCOC(=O)C1=C(C#N)NC(C)=C(C(=O)OCCN(CC)CC)C1c1cccc([N+](=O)[O-])c1` (centres undefined) showed a melting point of 150 to 152 °C.

`CN(CCNc1ccnc2c(NC(=O)c3c(Cl)cccc3Cl)cccc12)C(=O)n1ccnc1`: the melting point came to 202 °C.

For the molecule `CC1(C)C(=O)C(C)(C)c2cc3[nH]c(S(=O)Cc4ccccn4)nc3cc21` (centres undefined), the melting point lay in the range of 201 to 203 °C.

For the molecule `O=C(NNS(=O)(=O)c1ccccc1)c1ccc(-c2ccccc2)cc1`, the melting point was in the range of 216 to 219 °C.

Take `CCOC(=O)C(N)=NOC(=O)c1cnccc1C(F)(F)F`: the melting point lay in the range of 172 to 174 °C.

`CC(C)(C)c1cc2c(=O)[nH]cnc2o1` showed a melting point of 198 to 200 °C.

`CC(C)(C)c1cc(CCc2ccccc2NC(=O)NCCc2ccc(F)cc2)cc(C(C)(C)C)c1O`: the melting point lay in the range of 177 to 179 °C.

`CC1CCN(c2c(C#N)c3c(c4c2CCc2ccccc2-4)-c2ccccc2C3)CC1` showed a melting point of 152 to 154 °C.

`CC(C)CCC(O)C(CC1CCCCC1)NC(=O)C(Cc1c[nH]cn1)N(C)C(=O)C(Cc1ccccc1)OC(=O)N(C)CCN(C)C(=O)N1CCOCC1` (centres undefined) had a melting point of 69 to 74 °C.

For `Cc1ccc(-n2nc(O)c3[nH]c4cc(Cl)cc(Cl)c4c(=O)c3c2=O)c(C)c1`, the melting point is 335 to 336 °C.

`CN1c2ccccc2N(C(=O)CN2CCCC2)c2ccccc2S1(=O)=O`: the melting point lay within 175 to 177 °C.

With `CN1C(=O)CN(CCC#N)C1=O`, the melting point came out at 53 °C.

For `O=C(NCCOc1ccccn1)C1Cc2ccccc2N1S(=O)(=O)c1ccc(-c2cccc(C(F)(F)F)c2)cc1` (centres undefined), the melting point stood at 85 °C.

`Cc1ccc(N[C@H](Cc2c[nH]c3ccccc23)C(=O)O)cc1` came in with a melting point of 146 to 148 °C.

`CCOC(=O)c1nc(/C=C/c2ccccc2)ns1` yielded a melting point of 79 to 80 °C.

On to `CN1CCN(Cc2c(Cl)ccc(C(=O)O)c2Cl)C1=O`, for which the melting point came out at 221 °C.

For the molecule `O=C1N(CC2COCCO2)c2ccccc2C12COc1cc3c(cc12)OCCO3` (centres undefined), the melting point fell in the range of 198 to 199 °C.

The molecule `CCCc1nc2c(N)nc3ccccc3c2n1CCCCNS(C)(=O)=O` yielded a melting point of 186 to 188 °C.

`CCOC(=O)c1cc(=O)c2cccc(Br)c2o1` had a melting point of 124 to 126 °C.

`COc1ccc2cccc3c2c1CCC3CNC(C)=O` (centres undefined) yielded a melting point of 126 °C.

In turn, `Cc1nc2c3c(c(CO)cc2n1C)CCC(c1ccccc1)N3` (centres undefined) displayed a melting point of 253 to 254 °C.

As to `C=CCSCCON=C(C(=O)O)c1csc(NC=O)n1`, the melting point fell in the range of 70 to 78 °C.

`N#Cc1cc(-c2c3ccccc3cc3sc4ccccc4c23)cc(C#N)c1OCC(=O)O`: the melting point lay within 134 to 136 °C.

`CCCCc1nc(Cl)c(CO)n1Cc1ccc(-c2ccccc2-c2nc(=O)o[nH]2)cc1` yielded a melting point of 202 to 205 °C.

`COc1cc(Nc2nc3c(s2)CCCC3c2ccccc2)ccc1C(=O)NN` (centres undefined): the melting point was in the range of 297 to 299 °C.

Take `CN(C)C1=CCCS(=O)(=O)c2ccc(Cl)cc21`: the melting point fell in the range of 93 to 95 °C.

In turn, `CC(COc1cccc(=O)n1O)CC(C)(C)C` (centres undefined) yielded a melting point of 134 °C.

For `COc1nc(O)c(C(=O)O)nc1Cl`, the melting point lay within 170 to 173 °C.

In turn, `Cc1cccc(NC(=O)C2=C(O)c3ccc4ccccc4c3S(=O)(=O)N2C)c1` yielded a melting point of 240 to 242 °C.

`O=C1c2cc(N(CCO)CCO)ccc2OC12CC2` gave a melting point of 96 to 97 °C.

The term melting point denotes the temperature of the solid-liquid transition.
